Assay results taken from ChEMBL document CHEMBL4665703, “Structurally Diverse Indole Alkaloids with Vasorelaxant Activity from Melodinus hemsleyanus” (J Nat Prod, 2020).
Counter-ions that a name gives are not always drawn.

Test system: Aorta
Experiment: Vasorelaxant activity in Sprague-Dawley rat aortic artery assessed as reduction in phenylephrine-induced contractions
Assay type: functional, tissue-based

Row | SMILES | EC50 [µM]
1 | C[C@H]1C(=O)[C@@]23C[C@@]14C=CCN1CC[C@@]2(c2ccccc2NC3=O)[C@@H]14 | > 10
2 | C[C@@H]1C(=O)[C@@]23C[C@@]14C=CCN1CC[C@@]2(c2ccccc2NC3=O)[C@@H]14 | > 10
3 | CC[C@]12CCCN3CCc4c(n(c5ccccc45)[C@@H](O)C1)[C@@H]32 [VINCANOL] | > 10
4 | COC(=O)[C@@H](C)[C@]12C=CCN3CC[C@@]4(c5ccccc5NC(=O)[C@H]4C1)[C@@H]32 | > 10
5 | C[C@@H]1C(=O)O[C@]23N4CC=C[C@]12C[C@@H]1C(=O)Nc2ccccc2[C@@]13CC4 | > 10
6 | C[C@H](O)[C@@]12C[C@@H](C(N)=O)c3[nH]c4ccccc4c3CCN(C[C@H](O)[C@H]1O)C2=O | > 10
7 | CC[C@]12CCCN3CCc4c(n(c5ccccc45)[C@@H](OC)C1)[C@@H]32 | > 10
8 | CC[C@]12CCC[N+]3([O-])CC[C@]4(C(=C(C(=O)OC)C1)Nc1cc(O)ccc14)[C@H]23 (some centres not stated) | > 10
9 | COC(=O)[C@@H]1C[C@@]23CCC[N+]4([O-])CC[C@@]5(c6ccccc6N[C@]15CC2)[C@H]34 (some centres not stated) | > 10
10 | CC[C@]12C=CCN3CC[C@]4(C(=C(C(=O)OC)C1)Nc1ccccc14)[C@@H]32 [TABERSONINE] | > 10
11 | CC[C@@]12CC(C(=O)OC)=C3Nc4cc(O)ccc4[C@@]34CCN(C(=O)[C@H]3O[C@H]31)[C@@H]24 | > 10
12 | CC[C@]12CCCN3CC[C@]4(C(=C(C(=O)OC)C1)Nc1cc(O)ccc14)[C@@H]32 | > 10

Further lines, results first:

Row | EC50 [µM] | SMILES
13 | > 10 | CC[C@]12CC(=O)N3CC[C@]4(C(=C(C(=O)OC)C1)Nc1cc(O)ccc14)[C@@H]32
14 | 0.8 | CC[C@]12C=CC(=O)N3CC[C@]4(C(=C(C(=O)OC)C1)Nc1ccccc14)[C@@H]32
15 | 0.1 | Cc1ccc(N(CC2=NCCN2)c2cccc(O)c2)cc1 [PHENTOLAMINE MESYLATE]
16 | > 10 | COC(=O)[C@@H]1C[C@@]23CCCN4CC[C@@]5(c6ccccc6N[C@]15CC2)[C@@H]43
17 | 1.9 | CC[C@]12C=CCN3CCc4c(n(c5cc(OC)ccc45)[C@](O)(C(=O)OC)C1)[C@@H]32
18 | 1.9 | CC[C@]12C=CCN3CCc4c(n(c5ccccc45)[C@@](O)(C(=O)OC)C1)[C@@H]32
19 | 2.8 | CC[C@]12C=CCN3CCc4c(n(c5cc(O)ccc45)[C@@](O)(C(=O)OC)C1)[C@@H]32
20 | 3.8 | CC[C@]12C=CCN3CCc4c(n(c5ccccc45)[C@](O)(C(=O)OC)C1)[C@@H]32
21 | 2.4 | CC[C@]12C=CCN3CCc4c(n(c5cc(O)ccc45)[C@](O)(C(=O)OC)C1)[C@@H]32
22 | 2.2 | CC[C@]12C=CCN3CCc4c(n(c5cc(OC)ccc45)[C@@](O)(C(=O)OC)C1)[C@@H]32
